Kd data for 1 compound are collected here from paper PMC4655838, “Versatility in phospho-dependent molecular recognition of the XRCC1 and XRCC4 DNA-damage scaffolds by aprataxin-family FHA domains” (DNA Repair, 2015).

The structures appear in SMILES notation. Like-named read-outs stand apart in the source and are kept apart here. Square brackets hold non-standard residues; d marks the D form. Peptide text beside a SMILES is read from it. pT = C[C@@H](OP(=O)(O)O)[C@H](N)C(=O)O; pS = N[C@@H](COP(=O)(O)O)C(=O)O Bounds are passed on as bounds.

What all share (assay type): binding
Assay [1] addresses T1, wild-type aprataxin FHA domain (Homo sapiens, UniProt Q7Z2E3).
T1 construct: aprataxin residues 1–105; GST (pGEX-6P-1) (N, cleaved yes); made in house; host or cells: Escherichia coli BL21 (DE3)
Kind of assay: ITC of wild-type aprataxin FHA domain with XRCC1 and XRCC4 phosphopeptides. Particulars: 22 °C, 50 mM HEPES pH 7.5, 150 mM NaCl, 5 mM β-mercaptoethanol, peptide in syringe, XRCC1 peptides 1 mM into 100 μM protein, XRCC4 peptides 300 μM into 30 μM protein, single-site model, representative of triplicate. An excerpt: (§1) The genes for aprataxin residues 1–105 and APLF residues 1–106 were amplified using primer sets which incorporated 5′ BamHI and 3′ XhoI sites. PCR products and pGEX-6P-1 vector were digested with BamHI and XhoI and religated. All point mutations were generated using a QuickChange Site-Directed Mutagenesis Kit (Stratagene) following the manufacturer's recommended protocol.
(§2) For expression, the pGEX-6P-1/aprataxin-FHA constructs were transformed into Escherichia coli strain BL21 (DE3) and the pGEX-6P-1/APLF-FHA constructs transformed into the strain Rosetta2 (DE3). Cells were grown in LB at 37 °C to an A600 of 0.5, induced with 0.4 mM isopropyl 1-thio-β-D-galactopyranoside and incubated at 18 °C for a further 16 h before harvesting. Cells were lysed by sonication and clarified by centrifugation (20,000 × g × 30 min). The supernatant was applied to a glutathione-4B resin (Amersham) and cleaved from the resin with rhinovirus 3C protease. Proteins were purified further by gel-filtration chromatography on a Superdex 75 matrix in 20 mM Tris pH 7.5, 150 mM NaCl, 5 mM DTT. Selenomethionine-labelled APLF L91 M protein was expressed in Rosetta2 (DE3) cells cultured in SelenoMet base media and nutrients supplemented with seleno-methionine solution (Molecular Dimensions Ltd.) and purified as the wild-type protein.
(§3) Phosphopeptides based on the XRCC1 sequence 515-YAGSTDENTDSEEHQ-529 and the XRCC4 sequence 229-YDESTDEES-237 were synthesised with amidated C-termini to avoid potential end-effects of a free carboxy-terminus by Dr. W. Mawby (University of Bristol), purified by HPLC and characterised by mass spectrometry. FHA-phosphopeptide binding was quantified by isothermal titration calorimetry using a Microcal Omega VP-ITC calorimeter (MicroCal Inc., Northampton, MA). Protein was dialysed against ITC buffer (50 mM HEPES pH 7.5, 150 mM NaCl, 5 mM β-mercaptoethanol) and peptides were dissolved in the dialysis buffer. Experiments were carried out at 22 °C and involved 30 successive 10 μl injections of peptide solution into a sample cell containing protein solution. Titrations with XRCC1 peptides used peptide at 1 mM and protein at 100 μM and titrations with XRCC4 peptides used peptide at 300 μm and protein at 30 μM. Heats of dilution were subtracted and binding isotherms were plotted and analysed with MicroCal origin version 7.0, assuming a single-site binding model.

Assay [2] concerns the target T2, wild-type APLF FHA domain (Homo sapiens, UniProt Q8IW19).
T2 construct: APLF residues 1–106; GST (pGEX-6P-1) (N, cleaved yes); made in house; host or cells: Escherichia coli Rosetta2 (DE3)
T2 sequence (Q8IW19 1-106): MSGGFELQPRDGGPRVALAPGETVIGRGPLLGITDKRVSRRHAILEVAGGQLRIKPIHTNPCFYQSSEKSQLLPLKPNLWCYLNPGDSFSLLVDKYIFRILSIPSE
As to the kind of experiment: ITC of wild-type APLF FHA domain with XRCC1 and XRCC4 phosphopeptides. Particulars: 22 °C, 50 mM HEPES pH 7.5, 150 mM NaCl, 5 mM β-mercaptoethanol, peptide in syringe, XRCC1 peptides 1 mM into 100 μM protein, XRCC4 peptides 300 μM into 30 μM protein, single-site model, representative of triplicate.
Description: as §1
For expression, the pGEX-6P-1/aprataxin-FHA constructs were transformed into Escherichia coli strain BL21 (DE3) and the pGEX-6P-1/APLF-FHA constructs transformed into the strain Rosetta2 (DE3). Cells were grown in LB at 37 °C to an A600 of 0.5, induced with 0.4 mM isopropyl 1-thio-β-D-galactopyranoside and incubated at 18 °C for a further 16 h before harvesting. […]
Phosphopeptides based on the XRCC1 sequence 515-YAGSTDENTDSEEHQ-529 and the XRCC4 sequence 229-YDESTDEES-237 were synthesised with amidated C-termini to avoid potential end-effects of a free carboxy-terminus by Dr. W. Mawby (University of Bristol), purified by HPLC and characterised by mass spectrometry. FHA-phosphopeptide binding was quantified by isothermal titration calorimetry using a Microcal Omega VP-ITC calorimeter (MicroCal Inc., Northampton, MA). […] Heats of dilution were subtracted and binding isotherms were plotted and analysed with MicroCal origin version 7.0, assuming a single-site binding model.

In assay [3] the target is T3, R42A Mutant of aprataxin FHA domain (Homo sapiens, UniProt Q7Z2E3, R56A).
T3 construct: aprataxin residues 1–105; GST (pGEX-6P-1) (N, cleaved yes); made in house; host or cells: Escherichia coli BL21 (DE3)
Kind of assay: ITC of R42A mutant of aprataxin FHA domain with XRCC1 and XRCC4 phosphopeptides. Particulars: 22 °C, 50 mM HEPES pH 7.5, 150 mM NaCl, 5 mM β-mercaptoethanol, single-site model.
Description: as §1, §2, §3

The target of assay [4] is T4, K38A Mutant of aprataxin FHA domain (Homo sapiens, UniProt Q7Z2E3, K52A).
T4 construct: aprataxin residues 1–105; GST (pGEX-6P-1) (N, cleaved yes); made in house; host or cells: Escherichia coli BL21 (DE3)
As to the kind of experiment: ITC of K38A mutant of aprataxin FHA domain with XRCC1 and XRCC4 phosphopeptides. Particulars: 22 °C, 50 mM HEPES pH 7.5, 150 mM NaCl, 5 mM β-mercaptoethanol, single-site model.
Description: as §1, §2, §3

The next assay concerns the target T5, aprataxin FHA domain (Homo sapiens, UniProt Q7Z2E3).
T5 construct: aprataxin residues 1–105; GST (pGEX-6P-1) (N, cleaved yes); made in house; host or cells: Escherichia coli BL21 (DE3)
Kind of assay: NMR (1H-SOFAST-HMQC) titrations of aprataxin FHA domain with XRCC1 phosphopeptides. To be noted: NMR titration, 22 °C. As for the experimental part: NMR experiments were carried out at 22 °C on Bruker Avance II+ 600 MHz and Avance III 700 MHz spectrometers, each equipped with a cryogenic triple-resonance probe. Protein and peptides were prepared in NMR buffer (20 mM Na Acetate pH 5.8, 50 mM NaCl, 2 mM DTT). Three-dimensional HNCA, HNCO, HNCACB and CBCA(CO)NH experiments were performed to obtain backbone assignments. NMR titration experiments were carried out by adding the unlabelled XRCC1 peptides to ^15N-labeled aprataxin FHA domain. The initial protein concentration was 92 μM and volumes of 2 mM stock solution of peptide were added until the protein:peptide ratio was 1:4. ^1H-SOFAST-HMQC [36] spectra were measured after each titration step. All spectra were processed using nmrPipe, and analysed using CARA/NEASY [38]. The weighted chemical shift change (in ppm units) of each amide proton (ΔδHN) and nitrogen (ΔδN) was calculated according to the equation: Δδtotal = [(ΔδHNWHN)^2 + (ΔδNWN)^2]^1/2 with WHN = 1 and WN = 0.154 [39]. Weighted chemical shifts for residues D37, V45, Q46, V61 and V63 were plotted against peptide concentration to determine individual Kds and averaged to determine the apparent Kd.

T5 sequence (Q7Z2E3 15-119): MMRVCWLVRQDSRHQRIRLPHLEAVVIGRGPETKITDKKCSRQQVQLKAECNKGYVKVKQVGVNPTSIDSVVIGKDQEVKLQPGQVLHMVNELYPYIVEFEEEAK
T4 sequence (Q7Z2E3 15-119 K52A): as the sequence (Q7Z2E3 15-119) above, with K38A counted along it
T3 sequence (Q7Z2E3 15-119 R56A): as the sequence (Q7Z2E3 15-119) above, with R42A counted along it
T1 sequence (Q7Z2E3 15-119): as the sequence (Q7Z2E3 15-119) above

In the case of `C[C@H](NC(=O)[C@@H](N)Cc1ccc(O)cc1)C(=O)NCC(=O)N[C@@H](COP(=O)(O)O)C(=O)N[C@H](C(=O)N[C@@H](CC(=O)O)C(=O)N[C@@H](CCC(=O)O)C(=O)N[C@@H](CC(N)=O)C(=O)N[C@H](C(=O)N[C@@H](CC(=O)O)C(=O)N[C@@H](CO)C(=O)N[C@@H](CCC(=O)O)C(=O)N[C@@H](CCC(=O)O)C(=O)N[C@@H](Cc1c[nH]cn1)C(=O)N[C@@H](CCC(N)=O)C(N)=O)[C@@H](C)OP(=O)(O)O)[C@@H](C)OP(=O)(O)O` [YAGpSpTDENpTDSEEHQ] (H-YAG[pS][pT]DEN[pT]DSEEHQ-NH2), the Kd in assay [1] worked out at 0.5 ± 0.05 µM; in assay [2], 11 ± 0.5 µM; in assay [3] it was 28.7 ± 1.9 µM; in assay [4], 4.4 ± 0.3 µM; on aprataxin FHA domain (20 mM Na Acetate pH 5.8, 50 mM NaCl, 2 mM DTT, 92 µM 15N aprataxin FHA, 2 mM peptide stock, read-out: Kd from weighted chemical shift of residue Asp37), 0.1 µM; at aprataxin FHA domain (pH 5.8, 92 µM aprataxin FHA, read-out: Kd from weighted chemical shift of residue Gln46), 0.1 µM. The Kd is 0.6 µM at aprataxin FHA domain (pH 5.8, 92 µM aprataxin FHA, read-out: Kd from weighted chemical shift of residue Val45); 0.1 µM on aprataxin FHA domain (pH 5.8, 92 µM aprataxin FHA, read-out: Kd from weighted chemical shift of residue Val61); 0.5 µM at aprataxin FHA domain (pH 5.8, 92 µM aprataxin FHA, read-out: Kd from weighted chemical shift of residue Val63); 0.3 µM at aprataxin FHA domain (pH 5.8, mean of individual Kds of D37, V45, Q46, V61, V63, read-out: Kd, Mean (SEM) over five residues (apparent Kd)); below 1 µM at aprataxin FHA domain (pH 5.8, tighter binders not well defined due to high protein concentration, read-out: overall apparent affinity (Kdapp) estimated from NMR titrations).
